Test results from patent US20150266850A1 (E.I.DU PONT DE NEMOURS AND COMPANY, priority 2012, published 2015).
Marks after values point to notes of the source that are not given here.

Columns and labels:
Format in all cases: in vivo
[1] = tested on: Erysiphe graminis f. sp. tritici; experiment: Test A: wheat powdery mildew, preventive spray on wheat seedlings, visual disease rating; details: 100 = 100% disease control; for pest or weed control at 50 ppm / pest or weed control at 40 ppm: Blumeria graminis, 192 h
Text: (§1) General protocol for preparing test suspensions for Tests A-E: the test compounds were first dissolved in acetone in an amount equal to 11% of the final volume and then suspended at the desired concentration (in ppm) in acetone and purified water (50/50 mix by volume) containing 250 ppm of the surfactant Trem® 014 (polyhydric alcohol esters). The resulting test suspensions were then used in Tests A-E. Spraying a 200 ppm test suspension to the point of run-off on the test plants was the equivalent of a rate of 800 g/ha.
The test suspension was sprayed to the point of run-off on wheat seedlings. The following day the seedlings were inoculated with a spore dust of Erysiphe graminis f. sp. tritici, (the causal agent of wheat powdery mildew) and incubated in a growth chamber at 20° C. for 8 days, after which time disease ratings were visually made.
(§2) Results for Tests A-E are given in Table A. In the Table, a rating of 100 indicates 100% disease control and a rating of 0 indicates no disease control (relative to the controls). A dash (-) indicates no test results. All results are for 200 ppm except where followed by an “*”, which indicates 40 ppm or “**”, which indicates 50 ppm.

Septoria nodorum = experiment: Test D: wheat glume blotch, preventive spray on wheat seedlings, visual disease rating; details: 100 = 100% disease control
Text: as §1
The test suspension was sprayed to the point of run-off on wheat seedlings. The following day the seedlings were inoculated with a spore suspension of Septoria nodorum (the causal agent of wheat glume blotch) and incubated in a saturated atmosphere at 20° C. for 48 h, and then moved to a growth chamber at 20° C. for 7 days, after which time disease ratings were visually made.
as §2

[2] = tested on: Puccinia recondita f sp. tritici; experiment: Test B: wheat leaf rust, preventive spray on wheat seedlings, visual disease rating; details: 100 = 100% disease control; for pest or weed control at 50 ppm / pest or weed control at 40 ppm: 192 h
Text: as §1
The test suspension was sprayed to the point of run-off on wheat seedlings. The following day the seedlings were inoculated with a spore suspension of Puccinia recondita f sp. tritici (the causal agent of wheat leaf rust) and incubated in a saturated atmosphere at 20° C. for 24 h, and then moved to a growth chamber at 20° C. for 7 days, after which time disease ratings were visually made.
as §2

Septoria tritici = experiment: Test C: wheat leaf blotch, preventive spray on wheat seedlings, visual disease rating; details: 100 = 100% disease control
Text: as §1
The test suspension was sprayed to the point of run-off on wheat seedlings. The following day the seedlings were inoculated with a spore suspension of Septoria tritici (the causal agent of wheat leaf blotch) and incubated in a saturated atmosphere at 24° C. for 48 h, and then moved to a growth chamber at 20° C. for 19 days, after which time disease ratings were visually made.
as §2

[3] = Parastagonospora nodorum, 216 h, 50 ppm (**)

Compound	Test A disease control rating ([1]; 40 ppm (*))	Test D disease control rating (Septoria nodorum; 40 ppm (*))	Test B disease control rating ([2]; 40 ppm (*))	Test C disease control rating (Septoria tritici; 40 ppm (*))	other results
COC(=O)NCc1cc(-n2ncc(-c3ccc(OC)cc3Br)n2)ccc1C [Cmpd 143]	99* %	100* %	100* %	99* %	
CCOc1ccc(-c2ccn(-c3ccc(C)c(CNC(=O)OC)c3)n2)c(F)c1 [Cmpd 137]	100* %	100* %	100* %	97* %	
COC(=O)NCc1cc(-c2ccn(-c3ccc(OC(C)C)cc3C)n2)ccc1C [Cmpd 121]					Test A disease control rating ([1]; 50 ppm (**)): 100** %; Test B disease control rating ([2]; 50 ppm (**)): 100** %; Test C disease control rating (Septoria tritici; 50 ppm (**)): 98** %
C#Cc1ccc(-c2ccn(-c3ccc(C)c(CNC(=O)OC)c3)n2)c(C)c1 [Cmpd 112]	100* %	100* %	100* %	97* %	
COCCOc1ccc(-n2ccc(-c3ccc(C)c(CNC(=O)OC)c3)n2)c(C)c1 [Cmpd 126]	87* %		100* %		
C=Cc1ccc(-c2ccn(-c3ccc(C)c(CNC(=O)OC)c3)n2)c(C)c1 [Cmpd 113]	40* %	100* %	99* %	74* %	
COC(=O)NCc1cc(-n2ncc(-c3ccc(OC)nc3OC)n2)ccc1C [Compound 136, methyl N-[[5-[4-(2,6-dimethoxy-3-pyridinyl)-2H-1,2,3-triazol-2-yl]-2-methylphenyl]methyl]carbamate]					pest or weed control at 50 ppm ([1]; 50 ppm (**)): 99%; pest or weed control at 50 ppm (Septoria nodorum; [3]): 100%; pest or weed control at 50 ppm ([2]; 50 ppm (**)): 100%
CCOc1cc(F)ccc1-c1ccn(-c2ccc(C)c(CNC(=O)OC)c2)n1 [Cmpd 129]	98* %	100* %	100* %	68* %	
COC(=O)NCc1cc(-n2ncc(-c3ccc(Br)cc3OC)n2)ccc1C [Cmpd 141]	99* %	100* %	100* %	97* %	
COC(=O)NCc1cc(-c2ccn(-c3ccc(OC(F)(F)F)cc3C)n2)ccc1C [Compound 123, methyl N-[[2-methyl-5-[1-[2-methyl-4-(trifluoromethoxy)phenyl]-1H-pyrazol-3-yl]phenyl]methyl]carbamate]					pest or weed control at 40 ppm ([1]; 40 ppm (*)): 99%; pest or weed control at 40 ppm ([2]; 40 ppm (*)): 100%
COC(=O)NCc1cc(-n2ncc(-c3ccc(OC)nc3OC)[n+]2[O-])ccc1C [Compound 135]					pest or weed control at 50 ppm ([1]; 50 ppm (**)): 99%; pest or weed control at 50 ppm (Septoria nodorum; [3]): 100%; pest or weed control at 50 ppm ([2]; 50 ppm (**)): 100%
CCOc1ccc(-c2ccn(-c3ccc(C)c(CNC(=O)OC)c3)n2)c(C)n1 [Cmpd 142]	99* %	100* %	100* %	99* %	
COC(=O)NCc1cc(-n2ccc(-c3ccc(Br)cc3C)n2)ccc1C [Cmpd 102]	99* %	100* %	100* %	98* %	
CCOc1cc(C)ccc1-c1ccn(-c2ccc(C)c(CNC(=O)OC)c2)n1 [Cmpd 138]	99* %	100* %	100* %	95* %	
CCOc1ccc(-c2cnn(-c3ccc(C)c(CNC(=O)OC)c3)n2)c(C)c1 [Cmpd 107]	99* %	100* %	100* %	99* %	
COC(=O)NCc1cc(-n2ccc(-c3ccc(C(F)(F)F)cc3C)n2)ccc1C [Cmpd 100]	99* %	100* %	100* %	97* %	
CCCOc1ccc(-n2ccc(-c3ccc(C)c(CNC(=O)OC)c3)n2)c(C)c1 [Cmpd 125]	98* %		100* %		
COC(=O)NCc1cc(-n2ccc(-c3ccc(C)cc3Br)n2)ccc1C [Cmpd 127]	100* %	100* %	100* %	93* %	
COC(=O)NCc1cc(-c2ccn(-c3ccc(C)nc3C)n2)ccc1C [Compound 114, methyl N-[[5-[1-(2,6-dimethyl-3-pyridinyl)-1H-pyrazol-3-yl]-2-methylphenyl]methyl]carbamate]					pest or weed control at 40 ppm ([1]; 40 ppm (*)): 90%; pest or weed control at 40 ppm (Septoria nodorum; Parastagonospora nodorum, 216 h, 40 ppm (*)): 100%; pest or weed control at 40 ppm ([2]; 40 ppm (*)): 100%; pest or weed control at 40 ppm (Septoria tritici; Zymoseptoria tritici, 504 h, 40 ppm (*)): 86%
COC(=O)NCc1cc(-n2ccc(-c3ccc(C(F)(F)F)cc3OC)n2)ccc1C [Cmpd 101]	99* %	100* %	100* %	94* %	
C#CCOc1ccc(-c2cnn(-c3ccc(C)c(CNC(=O)OC)c3)n2)c(C)c1 [Cmpd 106]	99* %	100* %	100* %	98* %	
COC(=O)NCc1cc(-n2ncc(-c3ccc(C(F)(F)F)cc3C(F)(F)F)n2)ccc1C [Cmpd 132]					Test A disease control rating ([1]; 50 ppm (**)): 100** %; Test D disease control rating (Septoria nodorum; 50 ppm (**)): 100** %; Test B disease control rating ([2]; 50 ppm (**)): 99** %
methyl N-[[5-[1-(2,6-dimethoxy-3-pyridinyl)-1H-pyrazol-3-yl]-2-methylphenyl]-methyl]carbamate [Compound 116]					Test A disease control rating ([1]; 50 ppm (**)): 100** %; Test B disease control rating ([2]; 50 ppm (**)): 100** %; Test C disease control rating (Septoria tritici; 50 ppm (**)): 99** %
COC(=O)NCc1cc(-c2ccn(-c3ccc(C(C)(C)C)cc3C)n2)ccc1C [Cmpd 124]	99* %		100* %		
COC(=O)NCc1cc(-c2ccn(-c3ccc(OC4CCCCC4)cc3C)n2)ccc1C [Cmpd 122]	87* %		91* %		
COC(=O)NCc1cc(-c2ccn(-c3ccc(OCC(C)C)cc3C)n2)ccc1C [Cmpd 134]					Test A disease control rating ([1]; 50 ppm (**)): 99** %; Test D disease control rating (Septoria nodorum; 50 ppm (**)): 100** %; Test B disease control rating ([2]; 50 ppm (**)): 100** %
CCOc1ccc(-n2ccc(-c3ccc(C)c(CNC(=O)OC)c3)n2)c(C)c1 [Cmpd 120]					Test A disease control rating ([1]; 50 ppm (**)): 100** %; Test B disease control rating ([2]; 50 ppm (**)): 100** %; Test C disease control rating (Septoria tritici; 50 ppm (**)): 99** %
COC(=O)NCc1cc(-c2ccn(-c3ccc(C(C)C)cc3C)n2)ccc1C [Cmpd 133]					Test A disease control rating ([1]; 50 ppm (**)): 100** %; Test D disease control rating (Septoria nodorum; 50 ppm (**)): 100** %; Test B disease control rating ([2]; 50 ppm (**)): 100** %
